Literature values, collected in patent US3963579A, “Microbiological process for the production of pepstatins” (Sanraku-Ocean Co., Ltd., priority 1973, dated 1976).
Square brackets hold non-standard residues; d marks the D form. Peptide text beside a SMILES is read from it. * marks the point of attachment. Sta = CC(C)C[C@H](N)[C@@H](O)CC(=O)O; Isovaleryl = CC(C)CC(=O)*

Details: clinical, reported

CC(C)CC(=O)N[C@H](C(=O)N[C@H](C(=O)N[C@@H](CC(C)C)[C@@H](O)CC(=O)N[C@@H](C)C(=O)N[C@@H](CC(C)C)[C@@H](O)CC(=O)O)C(C)C)C(C)C [pepstatin A] (Isovaleryl-VV[Sta]A[Sta]-OH)
effect on gastric ulcers clinically: takes effect on gastric ulcers clinically
